Usually inhibition stands for the relative decrease from the control value, in per cent. A higher inhibition goes with a response far below the control.

Molecules are shown by their SMILES.

The subject of this assay is Lepidium sativum. Nature of the assay: Inhibition of Lepidium sativum cress root growth at 5X10'-5 mol/L after 40 hrs. Format: functional.
With `CC/C=C\CC1C(=O)C=CC1CCCCCCCC(=O)O` (cis isomer), the inhibition at 50 µM came out at 50%.
For `CC/C=C\C[C@H]1C(=O)C=C[C@H]1CCCCCCCC(=O)OC[C@H](CO[C@@H]1O[C@H](CO)[C@H](O)[C@H](O)[C@H]1O)OC(=O)CCCCC[C@@H]1C=CC(=O)[C@@H]1C/C=C\CC` [ARABIDOPSIDE A], at 50 µM the inhibition was 30%.
The value for `CC/C=C\C[C@H]1C(=O)C=C[C@H]1CCCCCCCC(=O)OC[C@H](CO[C@@H]1O[C@H](CO)[C@H](O)[C@H](O)[C@H]1O)OC(=O)CCCCCCC[C@@H]1C=CC(=O)[C@@H]1C/C=C\CC` [ARABIDOPSIDE B] was 30%; that for `CC/C=C\CC1C(=O)C=CC1CCCCCCCC(=O)OCC(CO[C@@H]1O[C@H](CO[C@H]2O[C@H](CO)[C@H](O)[C@H](O)[C@H]2O)[C@H](O)[C@H](O)[C@H]1O)OC(=O)CCCCCCCC1C=CC(=O)C1C/C=C\CC` (stereo not given in full) [Arabidopside D] was 30%.
`CC/C=C\C[C@H]1C(=O)CC[C@@H]1CC(=O)O` [JASMONIC ACID]: the inhibition at 50 µM turned out to be 50%.

The values above are taken from ChEMBL document CHEMBL1158740, “Oxylipins arabidopsides C and D from Arabidopsis thaliana” (2005).
